target: T1, Nav1.8 channels (Homo sapiens, UniProt Q9Y5Y9); assay: Manual patch-clamp, current of stably overexpressed Nav1.8 channels (resting state voltage program); assay type: cell-based; conditions: not given
T1 construct: expressed in transfected cells
Description: Experimental Example 1: Effects of test substances on current of stably overexpressed Nav1.8 channels monitored via manual patch-clamp technique
Test compounds were dissolved in dimethyl sulfoxide (DMSO).
The extracellular fluid was as follows: 140 mM NaCl, 3.5 mM KCl, 1 mM MgCl2•6H2O, 2 mM CaCl2•2H2O, 10 mM D-Glucose, 10 mM HEPES, 1.25 mM NaH2PO4•2H2O; the pH was adjusted to 7.4 with NaOH. The intracellular fluid was as follows: 50 mM CsCl, 10 mM NaCl, 10 mM HEPES, 60 mM CsF, 20 mM EGTA; the pH was adjusted to 7.2 with CsOH.
2. Experimental materials and instruments
• 1) patch-clamp amplifier: EPC 10 (HEKA) • 2) micromanipulator: MP225 (Sutter Instrument) • 3) inverted microscope: MF53 (Mshot) • 4) micropipette puller: P97 (Sutter Instrument) • 5) capillary glass tube: BF150-86-10 (Sutter Instrument)
3. Experimental procedures
• 1) After the compounds were prepared into solutions with specified concentrations, the solutions were sequentially added to the pipeline of the drug delivery system and labeled. • 2) The cell climbing coverslip was placed in the recording chamber, the appropriate cells were selected under the inverted microscope, and the position of the drug delivery tip was adjusted. • 3) A capillary glass tube was pulled into a suitable recording electrode using the micropipette puller, and then the electrode filled with the intracellular fluid was mounted in the microelectrode holder. The micromanipulator was adjusted under the inverted microscope to allow the recording electrode to contact the cell, and negative pressure was applied to the electrode to form a high-resistance seal. At this time, fast capacitance compensation was performed, and then the application of negative pressure was continued to break the cell membrane, forming a whole-cell recording mode. Finally, slow capacitance compensation was performed, and related parameters were recorded. • 4) After the cell current stabilized, administration was started. Each concentration of the drug was applied for five minutes or until the current stabilized before proceeding to monitor the next concentration. The drug solutions were administered via gravity-fed delivery, flowing through the recording chamber to act on the cells in an ascending order of concentration (from low to high). A peristaltic pump was employed for solution exchange in the recording process.
4 Test voltage program (resting state) and results
After the formation of the whole-cell seal, the cell voltage was clamped at -120 mV, followed by depolarization to 0 mV using a square-wave pulse with a duration of 50 ms to elicit Nav1.8 currents. This procedure was repeated every 20 s to monitor the maximum current induced by the square wave. After the current stabilized, the test compounds were administered. Once the response stabilized, the intensity of the current block was calculated.

T1 sequence (Q9Y5Y9 whole entry): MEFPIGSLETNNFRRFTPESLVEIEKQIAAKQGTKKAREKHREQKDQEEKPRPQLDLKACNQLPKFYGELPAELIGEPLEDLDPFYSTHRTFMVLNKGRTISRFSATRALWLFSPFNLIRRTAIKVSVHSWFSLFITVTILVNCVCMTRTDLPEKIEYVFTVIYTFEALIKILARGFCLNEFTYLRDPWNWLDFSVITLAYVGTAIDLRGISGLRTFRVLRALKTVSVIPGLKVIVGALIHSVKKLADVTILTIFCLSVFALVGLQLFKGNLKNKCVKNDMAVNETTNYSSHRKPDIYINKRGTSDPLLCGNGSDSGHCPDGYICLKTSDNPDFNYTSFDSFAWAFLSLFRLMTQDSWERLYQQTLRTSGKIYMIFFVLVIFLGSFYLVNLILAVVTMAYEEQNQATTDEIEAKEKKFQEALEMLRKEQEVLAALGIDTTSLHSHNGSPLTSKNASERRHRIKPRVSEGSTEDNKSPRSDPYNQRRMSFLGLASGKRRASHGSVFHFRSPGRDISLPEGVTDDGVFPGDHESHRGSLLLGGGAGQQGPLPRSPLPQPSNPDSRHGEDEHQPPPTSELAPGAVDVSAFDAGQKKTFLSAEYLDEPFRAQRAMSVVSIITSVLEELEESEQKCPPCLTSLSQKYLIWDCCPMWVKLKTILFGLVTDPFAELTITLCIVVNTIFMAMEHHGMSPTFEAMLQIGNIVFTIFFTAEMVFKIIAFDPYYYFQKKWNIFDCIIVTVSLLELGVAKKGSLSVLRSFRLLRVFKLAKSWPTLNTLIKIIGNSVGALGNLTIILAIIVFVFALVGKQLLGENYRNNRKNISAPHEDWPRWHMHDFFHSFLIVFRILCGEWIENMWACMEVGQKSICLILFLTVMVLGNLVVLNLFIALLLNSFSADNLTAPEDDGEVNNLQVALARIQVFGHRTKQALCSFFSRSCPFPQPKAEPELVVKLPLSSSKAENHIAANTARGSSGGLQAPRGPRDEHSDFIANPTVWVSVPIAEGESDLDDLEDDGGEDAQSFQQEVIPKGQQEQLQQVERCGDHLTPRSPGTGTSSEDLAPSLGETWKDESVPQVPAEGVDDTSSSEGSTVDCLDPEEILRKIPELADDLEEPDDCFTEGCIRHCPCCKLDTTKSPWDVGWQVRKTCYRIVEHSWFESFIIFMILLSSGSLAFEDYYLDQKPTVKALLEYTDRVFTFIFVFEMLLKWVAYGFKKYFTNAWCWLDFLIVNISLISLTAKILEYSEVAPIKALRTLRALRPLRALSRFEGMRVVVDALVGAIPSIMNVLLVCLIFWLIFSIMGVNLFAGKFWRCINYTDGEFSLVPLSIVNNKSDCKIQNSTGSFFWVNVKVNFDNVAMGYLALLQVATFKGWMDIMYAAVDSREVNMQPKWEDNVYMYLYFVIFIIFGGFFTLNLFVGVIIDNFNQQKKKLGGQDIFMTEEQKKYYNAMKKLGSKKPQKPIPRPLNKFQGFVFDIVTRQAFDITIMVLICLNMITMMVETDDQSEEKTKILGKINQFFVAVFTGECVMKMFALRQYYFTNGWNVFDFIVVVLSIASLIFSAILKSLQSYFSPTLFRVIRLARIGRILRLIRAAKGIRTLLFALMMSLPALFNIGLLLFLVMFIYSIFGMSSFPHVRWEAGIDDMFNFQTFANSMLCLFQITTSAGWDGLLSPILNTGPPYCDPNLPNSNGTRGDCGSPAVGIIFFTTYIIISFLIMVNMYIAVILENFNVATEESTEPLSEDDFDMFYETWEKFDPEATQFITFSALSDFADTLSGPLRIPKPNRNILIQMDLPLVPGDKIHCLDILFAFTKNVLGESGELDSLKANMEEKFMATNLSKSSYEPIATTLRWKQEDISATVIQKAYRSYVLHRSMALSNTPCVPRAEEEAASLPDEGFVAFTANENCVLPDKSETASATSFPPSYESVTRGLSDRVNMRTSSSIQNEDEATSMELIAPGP

| IC50 | SMILES |
| --- | --- |
| 0.33 nM | COc1c(C2CC(C)(C(F)(F)F)SC2C(=O)Nc2ccc(F)c(B(O)O)c2)ccc(F)c1F (stereo not drawn) [Compound 19, (5-(3-(3,4-difluoro-2-methoxyphenyl)-5-methyl-5-(trifluoromethyl)tetrahydrothiophene-2-carboxamido)-2-fluorophenyl)boronic acid] |

same assay, conditions: concentration of 1 nM, read-out: Inhibition rate %

| SMILES | inhibition at 0.001 µM |
| --- | --- |
| COc1c(C2C(C(=O)Nc3ccnc(C(N)=O)c3)SC(C)(C(F)(F)F)C2C)ccc(F)c1F (stereo not drawn) [Compound 136, 4-(3-(3,4-difluoro-2-methoxyphenyl)-4,5-dimethyl-5-(trifluoromethyl)tetrahydrothiophene-2-carboxamido)picolinamide] | 61.9% |
| COc1c(C2CC(C)(C(F)(F)F)SC2C(=O)Nc2ccnc(N)c2)ccc(F)c1F (stereo not drawn) [Compound 175, (4-(3-(3,4-difluoro-2-methoxyphenyl)-5-methyl-5-(trifluoromethyl)tetrahydrothiophene-2-carboxamido)-2-amino)pyridine] | 87.8% |

same assay, conditions: concentration of 10 nM, 0.01 µM

| Inhibition rate (%) | SMILES |
| --- | --- |
| 87.78% | COc1c(C2CC(C)(C)SC2C(=O)Nc2ccnc(C(N)=O)c2)ccc(F)c1F (stereo not drawn) [Compound 134-A, 4-(3-(3,4-difluoro-2-methoxyphenyl)-5,5-dimethyltetrahydrothiophene-2-carboxamido)picolinamide] |

same assay, conditions: concentration of 10 nM, read-out: Inhibition rate %

| inhibition at 0.01 µM | SMILES |
| --- | --- |
| 84.9% | COc1c(C2CC(C)(C(F)(F)F)SC2C(=O)Nc2cccc(B(O)O)c2)ccc(F)c1F (stereo not drawn) [Compound 9, (3-(3-(3,4-difluoro-2-methoxyphenyl)-5-methyl-5-(trifluoromethyl)tetrahydrothiophene-2-carboxamido)phenyl)boronic acid] |
| 87.5% | [2H][C@@]1(C(=O)Nc2cccc(B(O)O)c2)S[C@@](C)(C(F)(F)F)C[C@H]1c1ccc(F)c(F)c1OC [Compound 10-A] |
| 87.9% | [2H]C1(C(=O)Nc2ccc(F)c(B(O)O)c2)SC(C)(C(F)(F)F)CC1c1ccc(F)c(F)c1OC (stereo not drawn) [Compound 20-A, (5-(3-(3,4-difluoro-2-methoxyphenyl)-5-methyl-5-(trifluoromethyl)tetrahydrothiophene-2-carboxamido-2-d)-2-fluorophenyl)boronic acid] |
| 65% | COc1c(C2CC(C)(C(F)(F)F)SC2C(=O)Nc2ccc3c(c2)B(O)OC3)ccc(F)c1F (stereo not drawn) [Compound 31, 3-(3,4-difluoro-2-methoxyphenyl)-N-(1-hydroxy-1,3-dihydrobenzo[c][1,2]oxaborol-6-yl)-5-methyl-5-(trifluoromethyl)tetrahydrothiophene-2-carboxamide] |
| 84.7% | COc1c([C@@H]2C[C@](C)(C(F)(F)F)S[C@H]2C(=O)Nc2ccc3c(c2)B(O)OC3)ccc(F)c1F [Compound 31-A, (2R,3S,5R)-3-(3,4-difluoro-2-methoxyphenyl)-N-(1-hydroxy-1,3-dihydrobenzo[c][1,2]oxaborol-6-yl)-5-methyl-5-(trifluoromethyl)tetrahydrothiophene-2-carboxamide] |
| 79.8% | COc1c(C2CC(C)(C(F)(F)F)SC2C(=O)Nc2csc(B(O)O)c2)ccc(F)c1F (stereo not drawn) [Compound 48, (4-(3-(3,4-difluoro-2-methoxyphenyl)-5-methyl-5-(trifluoromethyl)tetrahydrothiophene-2-carboxamido)thiophen-2-yl)boronic acid] |
| 91.5% | COc1c([C@@H]2C[C@](C)(C(F)(F)F)S[C@H]2C(=O)Nc2csc(B(O)O)c2)ccc(F)c1F [Compound 48-A, (4-((2R,3S,5R)-3-(3,4-difluoro-2-methoxyphenyl)-5-methyl-5-(trifluoromethyl)tetrahydrothiophene-2-carboxamido)thiophen-2-yl)boronic acid] |
| 80.9% | [2H][C@@]1(C(=O)Nc2csc(B(O)O)c2)S[C@@](C)(C(F)(F)F)C[C@H]1c1ccc(F)c(F)c1OC [Compound 50-A, (4-((2R,3S,5R)-3-(3,4-difluoro-2-methoxyphenyl)-5-methyl-5-(trifluoromethyl)tetrahydrothiophene-2-carboxamido-2-d)thiophen-2-yl)boronic acid] |
| 81.1% | COc1c(C2CC(C)(C(F)(F)F)SC2C(=O)Nc2ccc(B(O)O)cc2)ccc(F)c1F (stereo not drawn) [Compound 82, (4-(3-(3,4-difluoro-2-methoxyphenyl)-5-methyl-5-(trifluoromethyl)tetrahydrothiophene-2-carboxamido)phenyl)boronic acid] |
| 95.6% | COc1c(C2CC(C)(C(F)(F)F)SC2C(=O)Nc2ccc(B(O)O)c(F)c2)ccc(F)c1F (stereo not drawn) [Compound 88, (4-(3-(3,4-difluoro-2-methoxyphenyl)-5-methyl-5-(trifluoromethyl)tetrahydrothiophene-2-carboxamido)-2-fluorophenyl)boronic acid] |
| 92.7% | COc1c([C@@H]2C[C@](C)(C(F)(F)F)S[C@H]2C(=O)Nc2ccc(B(O)O)c(F)c2)ccc(F)c1F [Compound 88-A, (4-((2R,3S,5R)-3-(3,4-difluoro-2-methoxyphenyl)-5-methyl-5-(trifluoromethyl)tetrahydrothiophene-2-carboxamido)-2-fluorophenyl)boronic acid] |
| 89.7% | COc1c(C2CC(C)(C(F)(F)F)SC2C(=O)Nc2ccc(B(O)O)c(Br)c2)ccc(F)c1F (stereo not drawn) [Compound 93, (2-bromo-4-(3-(3,4-difluoro-2-methoxyphenyl)-5-methyl-5-(trifluoromethyl)tetrahydrothiophene-2-carboxamido)phenyl)boronic acid] |
| 77.9% | COC(=O)c1cc(NC(=O)[C@@H]2S[C@@](C)(C(F)(F)F)C[C@H]2c2ccc(F)c(F)c2OC)ccc1B(O)O [Compound 101-A, (4-((2R,3S,5R)-3-(3,4-difluoro-2-methoxyphenyl)-5-methyl-5-(trifluoromethyl)tetrahydrothiophene-2-carboxamido)-2-(methoxycarbonyl)phenyl)boronic acid] |
| 76.5% | COc1c(C2CC(C)(C)SC2C(=O)Nc2ccnc(C(N)=O)c2)ccc(F)c1F (stereo not drawn) [Compound 134, 4-(3-(3,4-difluoro-2-methoxyphenyl)-5,5-dimethyltetrahydrothiophene-2-carboxamido)picolinamide] |
| 96.2% | [2H][C@@]1(C(=O)Nc2ccnc(C(N)=O)c2)S[C@@](C)(C(F)(F)F)C[C@H]1c1ccc(F)c(F)c1OC [Compound 140-A, 4-((2R,3S,5R)-3-(3,4-difluoro-2-methoxyphenyl)-5-methyl-5-(trifluoromethyl)tetrahydrothiophene-2-carboxamido-2-d)picolinamide] |
| 98.3% | COc1c([C@@H]2C[C@](C)(C(F)(F)F)S[C@H]2C(=O)Nc2ccc(F)c(C(N)=O)c2)ccc(F)c1F [Compound 146-A, (2R,3S,5R)-N-(3-carbamoyl-4-fluorophenyl)-3-(3,4-difluoro-2-methoxyphenyl)-5-methyl-5-(trifluoromethyl)tetrahydrothiophene-2-carboxamide] |
| 97.9% | COc1c(C2CC(C)(C(F)(F)F)SC2C(=O)Nc2cc[nH]c(=O)c2)ccc(F)c1F (stereo not drawn) [Compound 170, 3-(3,4-difluoro-2-methoxyphenyl)-5-methyl-N-(2-oxo-1,2-dihydropyridin-4-yl)-5-(trifluoromethyl)tetrahydrothiophene-2-carboxamide] |
| 86.5% | COc1c(C2CC(C)(C(F)(F)F)SC2C(=O)Nc2ccn(C)c(=O)c2)ccc(F)c1F (stereo not drawn) [Compound 172, 3-(3,4-difluoro-2-methoxyphenyl)-5-methyl-N-(1-methyl-2-oxo-1,2-dihydropyridin-4-yl)-5-(trifluoromethyl)tetrahydrothiophene-2-carboxamide] |
| 86% | COc1c(C2CC(C)(C(F)(F)F)SC2C(=O)Nc2ccc(=O)n(C)c2)ccc(F)c1F (stereo not drawn) [Compound 178, 3-(3,4-difluoro-2-methoxyphenyl)-5-methyl-N-(1-methyl-6-oxo-1,6-dihydropyridin-3-yl)-5-(trifluoromethyl)tetrahydrothiophene-2-carboxamide] |
| 90.2% | COc1c([C@@H]2C[C@](C)(C(F)(F)F)S[C@H]2C(=O)Nc2ccc(=O)n(C)c2)ccc(F)c1F [Compound 178-A, (2R,3S,5R)-3-(3,4-difluoro-2-methoxyphenyl)-5-methyl-N-(1-methyl-6-oxo-1,6-dihydropyridin-3-yl)-5-(trifluoromethyl)tetrahydrothiophene-2-carboxamide] |

Reference: patent EP4813993A1, “COMPOUND, PREPARATION METHOD THEREFOR, AND USE THEREOF” (Sichuan Kelun Pharmaceutical Research Institute Co., Ltd., priority 2023, dated 2025)
